IC50 and inhibition data for 25 molecules are collected here from patent publication US9073853B2, “Cycloalkane carboxylic acid derivatives as CXCR3 receptor antagonists” (Sanofi, priority 2011, dated 2015).

Broadly, the IC50 is the midpoint of a concentration-inhibition curve.

human CXCR3-A receptor, sequence (P49682 whole entry): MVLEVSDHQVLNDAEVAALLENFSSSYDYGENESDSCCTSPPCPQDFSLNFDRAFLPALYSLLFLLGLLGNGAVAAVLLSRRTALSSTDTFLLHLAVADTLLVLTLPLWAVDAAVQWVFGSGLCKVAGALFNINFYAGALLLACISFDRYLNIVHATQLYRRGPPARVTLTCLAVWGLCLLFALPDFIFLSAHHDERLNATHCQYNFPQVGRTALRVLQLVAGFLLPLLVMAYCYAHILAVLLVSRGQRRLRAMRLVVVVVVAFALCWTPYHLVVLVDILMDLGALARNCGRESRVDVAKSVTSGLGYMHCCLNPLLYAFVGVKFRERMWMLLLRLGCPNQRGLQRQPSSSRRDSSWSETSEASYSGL

The first experiment deals with human CXCR3-A receptor (Homo sapiens (Human), UniProt P49682). The experiment in a line: 125I-CXCL10 competition radioligand binding assay. To be noted: displacement of 125I-CXCL10 from membranes of CHO cells expressing human recombinant CXCR3-A. The essentials:
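Membranes from a recombinant cell line expressing human CXCR3-A (10-20 μg protein) were incubated with 125I-CXCL10 and test compound for 60 min at 25° C, then filtered onto PEI-soaked GF/B filters and gamma-counted. IC50 and Hill slope came from four-parameter nonlinear fitting of competition curves.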
In general terms: Displacement assays read how much labelled ligand stays bound in the presence of the test substance.
In the case of `Cc1cc(CN([C@H]2C[C@@H](C(=O)O)C2)[C@H](C)c2ccc(Cl)cc2)ccc1OCCN1C(=O)CN(C)C1=O` [Example 153, cis-3-([(R)-1-(4-Chloro-phenyl)-ethyl]-{3-methyl-4-[2-(3-methyl-2,5-dioxo-imidazolidin-1-yl)-ethoxy]-benzyl}-amino)-cyclobutanecarboxylic acid], the IC50 was found to be 294 nM.
Still for that read-out and setting: next, `COc1cc(CN(C[C@H]2CC[C@H](C(=O)O)CC2)C(C)c2ccc(C)cc2)ccc1OCCN1C(=O)CCC1=O` (stereo partly drawn) [Example 84, trans-4-{[{4-[2-(2,5-Dioxo-pyrrolidin-1-yl)-ethoxy]-3-methoxy-benzyl}-(1-p-tolyl-ethyl)-amino]-methyl}-cyclohexanecarboxylic acid]: 107 nM.
On the same count and under the same terms, next, `COc1cc(CN(C[C@H]2CC[C@@H](C(=O)O)CC2)C2CCc3cc(Cl)ccc32)ccc1OCCN1C(=O)CCC1=O` (stereo partly drawn) [Example 13, cis-4-[((5-Chloro-indan-1-yl)-{4-[2-(2,5-dioxo-pyrrolidin-1-yl)-ethoxy]-3-methoxy-benzyl}-amino)-methyl]-cyclohexane-carboxylic acid]: 1660 nM; `COc1cc(CN(C[C@@H]2CC[C@@H](C(=O)O)C2)[C@@H](C)c2ccc3c(c2)CCO3)ccc1OCCN1C(=O)CCC1=O` [Example 105, (1R,3R)-3-[([(S)-1-(2,3-Dihydro-benzofuran-5-yl)-ethyl]-{4-[2-(2,5-dioxo-pyrrolidin-1-yl)-ethoxy]-3-methoxy-benzyl}-amino)-methyl]-cyclopentanecarboxylic acid]: 53 nM.
Still for that read-out and setting: next, `Cc1cc([C@H](C)N(Cc2ccc(OCCN3C(=O)CCC3=O)c(C)c2)[C@H]2C[C@H](C(=O)O)C2)ccc1Cl` [Example 130]: 5300 nM; `Cc1cc(CN([C@H]2C[C@@H](C(=O)O)C2)[C@H](C)c2ccc(Cl)cc2)ccc1OCCN1C(=O)CCC1=O` [Example 132, cis-3-([(R)-1-(4-Chloro-phenyl)-ethyl]-{4-[2-(2,5-dioxo-pyrrolidin-1-yl)-ethoxy]-3-methyl-benzyl}-amino)-cyclobutanecarboxylic acid]: 170 nM.
As for `CCC(c1ccc(Cl)cc1)N(Cc1ccc(OCCN2C(=O)CN(C)C2=O)c(OC)c1)C[C@H]1[C@H](C(=O)O)C1(C)C` (stereo partly drawn) [Example 116, (1S,3S)-3-[([1-(4-Chloro-phenyl)-propyl]-{3-methoxy-4-[2-(3-methyl-2,5-dioxo-imidazolidin-1-yl)-ethoxy]-benzyl}-amino)-methyl]-2,2-dimethyl-cyclopropanecarboxylic acid], the IC50 turned out to be 160 nM.
Still for that read-out and setting: the value for `COc1cc(CN(C[C@H]2CC[C@H](C(=O)O)CC2)C(C)c2ccc(C(F)(F)F)cc2)ccc1OCCN1C(=O)CCC1=O` (stereo partly drawn) [Example 154, trans-4-({{4-[2-(2,5-Dioxo-pyrrolidin-1-yl)-ethoxy]-3-methoxy-benzyl}-[1-(4-trifluoromethyl-phenyl)-ethyl]-amino}-methyl)-cyclohexanecarboxylic acid] was 70 nM; that for `COc1cc(CN(C[C@H]2CC[C@H](C(=O)O)CC2)[C@@H](C)c2ccc(Cl)cc2)ccc1OCCN1C(=O)CN(C)C1=O` [Example 53, trans-4-[([(S)-1-(4-Chloro-phenyl)-ethyl]-{3-methoxy-4-[2-(3-methyl-2,5-dioxo-imidazolidin-1-yl)-ethoxy]-benzyl}-amino)-methyl]-cyclohexanecarboxylic acid] was 789 nM.
On the same count and under the same terms, next, `Cc1cc(CN(C2CCc3cc(Cl)ccc32)[C@H]2C[C@@H](C(=O)O)C2)ccc1OCCN1C(=O)CCC1=O` (stereo partly drawn) [Example 133, cis-3-((5-Chloro-indan-1-yl)-{4-[2-(2,5-dioxo-pyrrolidin-1-yl)-ethoxy]-3-methyl-benzyl}-amino)-cyclobutanecarboxylic acid]: 1640 nM; `COc1cc(CN(C[C@H]2CC[C@H](C(=O)O)CC2)[C@@H](C)c2ccc(Cl)cc2)ccc1C#CCN1C(=O)CCC1=O` [Example 55, trans-4-[([(S)-1-(4-Chloro-phenyl)-ethyl]-{4-[3-(2,5-dioxo-pyrrolidin-1-yl)-prop-1-ynyl]-3-methoxy-benzyl}-amino)-methyl]-cyclohexanecarboxylic acid]: 6600 nM.
On the same count and under the same terms, next, `COc1cc(CN(C[C@H]2CC[C@H](C(=O)O)C2)[C@H](C)c2ccc3c(c2)CCO3)ccc1OCCN1C(=O)CCC1=O` [Example 109, (1S,3S)-3-[([(R)-1-(2,3-Dihydro-benzofuran-5-yl)-ethyl]-{4-[2-(2,5-dioxo-pyrrolidin-1-yl)-ethoxy]-3-methoxy-benzyl}-amino)-methyl]-cyclopentanecarboxylic acid]: 73 nM; `COc1cc(CN(C[C@@H]2CC[C@@H](C(=O)O)C2)[C@@H](C)c2ccc(Cl)cc2)ccc1OCCN1C(=O)CCC1=O` [Example 99, (1R,3R)-3-[([(S)-1-(4-Chloro-phenyl)-ethyl]-{4-[2-(2,5-dioxo-pyrrolidin-1-yl)-ethoxy]-3-methoxy-benzyl}-amino)-methyl]-cyclopentanecarboxylic acid]: 223 nM; `COc1cc(CN(C[C@H]2CC[C@H](C(=O)O)CC2)[C@H]2CCc3cc(Cl)ccc32)ccc1SCCN1C(=O)CCC1=O` [Example 88, trans-4-[(((S)-5-Chloro-indan-1-yl)-{4-[2-(2,5-dioxo-pyrrolidin-1-yl)-ethylsulfanyl]-3-methoxy-benzyl}-amino)-methyl]-cyclohexanecarboxylic acid]: 23 nM.
On to `CCc1cc(CN(C[C@H]2CC[C@H](C(=O)O)CC2)C(C)c2ccc3c(c2)CCO3)ccc1OCCN1C(=O)CCC1=O` (stereo partly drawn) [Example 76, trans-4-[([1-(2,3-Dihydro-benzofuran-5-yl)-ethyl]-{4-[2-(2,5-dioxo-pyrrolidin-1-yl)-ethoxy]-3-ethyl-benzyl}-amino)-methyl]-cyclohexanecarboxylic acid], for which the IC50 amounted to 45 nM.
Same read-out and setting: next, `Cc1cc(CN(C(C)c2ccc(Cl)c(F)c2)[C@H]2C[C@@H](C(=O)O)C2)ccc1OCCN1C(=O)CCC1=O` (stereo partly drawn) [Example 125, cis-3-([1-(4-Chloro-3-fluoro-phenyl)-ethyl]-{4-[2-(2,5-dioxo-pyrrolidin-1-yl)-ethoxy]-3-methyl-benzyl}-amino)-cyclobutanecarboxylic acid]: 465 nM; `COc1cc(CN([C@H]2C[C@@H](C(=O)O)C2)[C@@H](C)c2ccc3c(c2)CCO3)ccc1OCCn1c(=O)ccn(C)c1=O` [Example 123, cis-3-([(S)-1-(2,3-Dihydro-benzofuran-5-yl)-ethyl]-{3-methoxy-4-[2-(3-methyl-2,6-dioxo-3,6-dihydro-2H-pyrimidin-1-yl)-ethoxy]-benzyl}-amino)-cyclobutanecarboxylic acid]: 7000 nM; `COc1cc(CN(C[C@H]2CC[C@H](C(=O)O)CC2)[C@H](C)c2ccc(Cl)c(C)c2)ccc1OCCN1C(=O)CCC1=O` [Example 27, trans-4-[([(R)-1-(4-Chloro-3-methyl-phenyl)-ethyl]-{4-[2-(2,5-dioxo-pyrrolidin-1-yl)-ethoxy]-3-methoxy-benzyl}-amino)-methyl]-cyclohexanecarboxylic acid]: 80 nM.
As for `COc1cc(CN(C[C@H]2CC[C@H](C(=O)O)CC2)[C@@H](C)c2ccc(Cl)cc2)ccc1CCCN1C(=O)CCC1=O` [Example 56, trans-4-[([(S)-1-(4-Chloro-phenyl)-ethyl]-{4-[3-(2,5-dioxo-pyrrolidin-1-yl)-propyl]-3-methoxy-benzyl}-amino)-methyl]-cyclohexanecarboxylic acid], the IC50 turned out to be 215 nM.
On the same count and under the same terms, next, `C[C@@H](c1ccc(Cl)cc1)N(Cc1ccc(OCCN2C(=O)CCC2=O)c(F)c1)C[C@H]1CC[C@H](C(=O)O)CC1` [Example 73, trans-4-[([(S)-1-(4-Chloro-phenyl)-ethyl]-{4-[2-(2,5-dioxo-pyrrolidin-1-yl)-ethoxy]-3-fluoro-benzyl}-amino)-methyl]-cyclohexanecarboxylic acid]: 154 nM.
Same read-out and setting: the value for `C[C@@H](c1ccc(Cl)cc1)N(Cc1ccc(OCCN2C(=O)CN(C)C2=O)c(Cl)c1)C[C@H]1CC[C@H](C(=O)O)CC1` [Example 23, trans-4-({{3-Chloro-4-[2-(3-methyl-2,5-dioxo-imidazolidin-1-yl)-ethoxy]-benzyl}-[(S)-1-(4-chloro-phenyl)-ethyl]-amino}-methyl)-cyclohexanecarboxylic acid] was 116 nM; that for `COc1cc(CN(C[C@H]2CC[C@H](C(=O)O)CC2)C(C)c2ccc3c(c2)CCO3)ccc1/C=C/CN1C(=O)CCC1=O` (stereo partly drawn) [Example 35, trans-4-[([1-(2,3-Dihydro-benzofuran-5-yl)-ethyl]-{4-[(E)-3-(2,5-dioxo-pyrrolidin-1-yl)-propenyl]-3-methoxy-benzyl}-amino)-methyl]-cyclohexanecarboxylic acid] was 1430 nM; that for `COc1cc(CN(C(C)c2ccc(Cl)c(F)c2)[C@H]2C[C@@H](C(=O)O)C2)ccc1OCCN1C(=O)CCC1=O` (stereo partly drawn) [Example 142, cis-3-([1-(4-Chloro-3-fluoro-phenyl)-ethyl]-{4-[2-(2,5-dioxo-pyrrolidin-1-yl)-ethoxy]-3-methoxy-benzyl}-amino)-cyclobutanecarboxylic acid] was 120 nM.

The experiment is the same for the next values; noted with them: read-out: % at 10 μM; at 10 μM; displacement of 125I-CXCL10.
Take `Cc1cc(CN(C(C)c2ccc(Cl)c(F)c2)[C@H]2C[C@H](C(=O)O)C2)ccc1OCCN1C(=O)CCC1=O` (stereo partly drawn) [Example 124, trans-3-([1-(4-Chloro-3-fluoro-phenyl)-ethyl]-{4-[2-(2,5-dioxo-pyrrolidin-1-yl)-ethoxy]-3-methyl-benzyl}-amino)-cyclobutanecarboxylic acid]: the inhibition at 10 µM is 24%.
Still for that read-out and setting: the value for `Cc1cc([C@@H](C)N(Cc2ccc(OCCN3C(=O)CCC3=O)c(C)c2)[C@H]2C[C@H](C(=O)O)C2)ccc1Cl` [Example 128, trans-3-([(R)-1-(4-Chloro-3-methyl-phenyl)-ethyl]-{4-[2-(2,5-dioxo-pyrrolidin-1-yl)-ethoxy]-3-methyl-benzyl}-amino)-cyclobutanecarboxylic acid] was 37%.
